Numbered stars: 1 amine (or outer) side, 2 acyl side, 3 side chain; on linkers, the order of the positions; unused ones are H or OH. Square brackets hold non-standard residues; d marks the D form. Side chains are listed from the residue outwards. Peptide text beside a SMILES is read from it. * marks the point of attachment. Phe(4-CH2SO3H) = N[C@@H](Cc1ccc(CS(=O)(=O)O)cc1)C(=O)O; Phenylacetyl(4-OSO3H) = O=C(Cc1ccc(OS(=O)(=O)O)cc1)*; sY = N[C@@H](Cc1ccc(OS(=O)(=O)O)cc1)C(=O)O; C18 diacid = O=C(O)CCCCCCCCCCCCCCCCC(=O)*; NMe1Nal = CN[C@@H](Cc1cccc2ccccc12)C(=O)O; C16 diacid = O=C(O)CCCCCCCCCCCCCCC(=O)*; γGlu = O=C(O)[C@H](CCC(=O)[*:2])N[*:1]; 1Nal = N[C@@H](Cc1cccc2ccccc12)C(=O)O; NMeF = CN[C@@H](Cc1ccccc1)C(=O)O; NMeD = CN[C@@H](CC(=O)O)C(=O)O; dNMeD = CN[C@H](CC(=O)O)C(=O)O; NH(2-Me-phenyl) = Cc1ccccc1N*; Nle = CCCC[C@H](N)C(=O)O; X1 = O=C(Cc1ccc(O)cc1)*; AEEA = NCCOCCOCC(=O)O; CO = O=C([*:1])[*:2]
Experiments:
[1] = biological target: T1, Gastrin/cholecystokinin type B receptor (Homo sapiens, UniProt P32239); assay: Agonist activity at human CCK2R expressed in human 1321N1 cells assessed as IP1 accumulation after 1 hr by HTRF assay; format: functional, cell-based
T1 sequence (P32239 whole entry): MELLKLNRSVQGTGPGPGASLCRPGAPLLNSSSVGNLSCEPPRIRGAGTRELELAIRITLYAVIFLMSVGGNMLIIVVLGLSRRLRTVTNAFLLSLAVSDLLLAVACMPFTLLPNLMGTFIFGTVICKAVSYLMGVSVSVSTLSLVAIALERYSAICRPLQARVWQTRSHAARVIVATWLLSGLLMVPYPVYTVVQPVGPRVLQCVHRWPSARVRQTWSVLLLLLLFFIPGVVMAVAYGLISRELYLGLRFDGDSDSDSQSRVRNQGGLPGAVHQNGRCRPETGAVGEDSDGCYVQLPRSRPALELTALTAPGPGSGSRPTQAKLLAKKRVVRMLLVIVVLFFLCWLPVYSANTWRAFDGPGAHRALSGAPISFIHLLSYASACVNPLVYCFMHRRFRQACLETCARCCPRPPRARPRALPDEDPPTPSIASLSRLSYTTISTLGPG

[2] = biological target: T2, Cholecystokinin receptor type A (Homo sapiens, UniProt P32238); assay: Agonist activity at human CCK1R expressed in human 1321N1 cells assessed as IP1 accumulation after 1 hr by HTRF assay; format: functional, cell-based
T2 sequence (P32238 whole entry): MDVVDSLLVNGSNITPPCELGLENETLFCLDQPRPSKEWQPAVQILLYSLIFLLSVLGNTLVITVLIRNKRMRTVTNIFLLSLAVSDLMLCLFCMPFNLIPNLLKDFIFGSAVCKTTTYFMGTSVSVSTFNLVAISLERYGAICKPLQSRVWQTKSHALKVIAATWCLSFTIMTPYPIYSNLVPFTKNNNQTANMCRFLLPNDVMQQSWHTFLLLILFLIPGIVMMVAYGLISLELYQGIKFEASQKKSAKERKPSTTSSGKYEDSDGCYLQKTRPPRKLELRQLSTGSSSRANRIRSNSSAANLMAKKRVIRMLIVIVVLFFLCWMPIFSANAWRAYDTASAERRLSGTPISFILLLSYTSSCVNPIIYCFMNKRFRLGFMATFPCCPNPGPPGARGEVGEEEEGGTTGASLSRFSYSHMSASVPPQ

[3] = biological target: T2, Cholecystokinin receptor type A; assay: Displacement of [125I]-CCK-8 from human CCK1R expressed in human 1321N1 cell membranes after 2 hrs by SPA assay
[4] = biological target: T1, Gastrin/cholecystokinin type B receptor; assay: Displacement of [125I]-CCK-8 from human CCK2R expressed in human 1321N1 cell membranes after 2 hrs by SPA assay

| Compound | pEC50 [1] | pEC50 [2] | pIC50 [3] | pIC50 [4] | EC50 [1] [nM] | EC50 [2] [nM] | IC50 [3] [nM] | IC50 [4] [nM] |
| --- | --- | --- | --- | --- | --- | --- | --- | --- |
| CCCC[C@H](NC(=O)[C@H](Cc1c[nH]c2ccccc12)NC(=O)CNC(=O)[C@@H](CCCNC(=O)COCCOCCNC(=O)COCCOCCNC(=O)CC[C@H](NC(=O)CCCCCCCCCCCCCCCCC(=O)O)C(=O)O)NC(=O)Cc1ccc(O)cc1)C(=O)N(C)[C@H](CC(=O)O)C(=O)N(C)[C@@H](Cc1ccccc1)C(N)=O | < 6 | 10.22 | 9.3 | 5.08 |  |  |  |  |
| CCCC[C@H](NC(=O)[C@H](Cc1ccc(OS(=O)(=O)O)cc1)NC(=O)[C@H](CC(=O)O)NC(=O)COCCOCCNC(=O)COCCOCCNC(=O)CC[C@H](NC(=O)CCCCCCCCCCCCCCCCC(=O)O)C(=O)O)C(=O)NCC(=O)N[C@@H](Cc1c[nH]c2ccccc12)C(=O)N[C@@H](CCCCNC(=O)Nc1ccccc1C)C(=O)N(C)[C@@H](CC(=O)O)C(=O)N(C)[C@@H](Cc1ccccc1)C(N)=O ({C18 diacid-γGlu-AEEA-AEEA}-D[sY][Nle]GWK([CO-NH(2-Me-phenyl)])[NMeD][NMeF]-NH2) |  |  |  |  | > 1000 | 0.115 | 0.479 | > 10000 |
| CCCC[C@H](NC(=O)[C@H](Cc1c[nH]c2ccccc12)NC(=O)CNC(=O)[C@H](CC(C)C)NC(=O)[C@H](Cc1ccc(OS(=O)(=O)O)cc1)NC(=O)[C@H](CC(=O)O)NC(=O)COCCOCCNC(=O)COCCOCCNC(=O)CC[C@H](NC(=O)CCCCCCCCCCCCCCCCC(=O)O)C(=O)O)C(=O)N(C)[C@H](CC(=O)O)C(=O)N(C)[C@@H](Cc1ccccc1)C(N)=O |  |  |  |  | 123 | 0.363 | 0.0741 |  |
| CCCC[C@H](NC(=O)Cc1ccc(OS(=O)(=O)O)cc1)C(=O)NCC(=O)N[C@@H](Cc1c[nH]c2ccccc12)C(=O)N[C@@H](CCCC)C(=O)N(C)[C@H](CC(=O)O)C(=O)N[C@@H](Cc1ccccc1)C(N)=O ({Phenylacetyl(4-OSO3H)}-[Nle]GW[Nle][dNMeD]F-NH2) |  |  |  |  | > 1000 | 0.0251 | 0.0447 | 7410 |
| CCCC[C@H](NC(=O)[C@H](Cc1ccc(OS(=O)(=O)O)cc1)NC(=O)[C@H](CC(=O)O)NC(=O)COCCOCCNC(=O)COCCOCCNC(=O)CC[C@H](NC(=O)CCCCCCCCCCCCCCCCC(=O)O)C(=O)O)C(=O)NCC(=O)N[C@@H](Cc1c[nH]c2ccccc12)C(=O)N[C@@H](CCC(N)=O)C(=O)N[C@@H](CC(=O)O)C(=O)N[C@@H](Cc1ccccc1)C(N)=O ({C18 diacid-γGlu-AEEA-AEEA}-D[sY][Nle]GWQDF-NH2) |  |  |  |  | 0.417 | 0.162 | 0.933 | 2.04 |
| CCCC[C@H](NC(=O)[C@H](Cc1ccc(O)cc1)NC(=O)[C@H](CC(=O)O)NC(=O)COCCOCCNC(=O)COCCOCCNC(=O)CC[C@H](NC(=O)CCCCCCCCCCCCCCCCC(=O)O)C(=O)O)C(=O)NCC(=O)N[C@@H](Cc1c[nH]c2ccccc12)C(=O)N[C@@H](CCCCNC(=O)Nc1ccccc1C)C(=O)N[C@@H](CC(=O)O)C(=O)N(C)[C@@H](Cc1ccccc1)C(N)=O |  |  |  |  | 5.01 | 0.107 | 0.339 | 759 |
| CCCC[C@H](NC(=O)[C@H](Cc1ccc(OS(=O)(=O)O)cc1)NC(=O)[C@H](CC(=O)O)NC(=O)COCCOCCNC(=O)COCCOCCNC(=O)CC[C@H](NC(=O)CCCCCCCCCCCCCCCCC(=O)O)C(=O)O)C(=O)NCC(=O)N[C@@H](Cc1c[nH]c2ccccc12)C(=O)N[C@H](C(=O)N[C@@H](CC(=O)O)C(=O)N[C@@H](Cc1ccccc1)C(N)=O)[C@@H](C)CC ({C18 diacid-γGlu-AEEA-AEEA}-D[sY][Nle]GWIDF-NH2) |  |  |  |  | 0.631 | 0.11 | 0.794 | 2.14 |
| CCCC[C@H](NC(=O)Cc1ccc(O)cc1)C(=O)NCC(=O)N[C@@H](Cc1c[nH]c2ccccc12)C(=O)N[C@@H](CCCC)C(=O)N(C)[C@@H](CC(=O)O)C(=O)N[C@@H](Cc1ccccc1)C(N)=O (X1-[Nle]GW[Nle][NMeD]F-NH2) |  |  |  |  | 195 | 9.12 | 15.5 | 3020 |
| CCCC[C@H](NC(=O)[C@H](Cc1ccc(OS(=O)(=O)O)cc1)NC(=O)[C@H](CC(=O)O)NC(=O)COCCOCCNC(=O)COCCOCCNC(=O)CC[C@H](NC(=O)CCCCCCCCCCCCCCCCC(=O)O)C(=O)O)C(=O)NCC(=O)N[C@@H](Cc1c[nH]c2ccccc12)C(=O)N[C@@H](CCCC)C(=O)N(C)[C@@H](CC(=O)O)C(=O)N[C@@H](Cc1cccc2ccccc12)C(N)=O ({C18 diacid-γGlu-AEEA-AEEA}-D[sY][Nle]GW[Nle][NMeD][1Nal]-NH2) |  |  |  |  | 1.86 | 0.501 | 0.0794 | 115 |
| CCCC[C@H](NC(=O)[C@H](Cc1c[nH]c2ccccc12)NC(=O)CNC(=O)[C@H](CC(C)C)NC(=O)[C@H](Cc1ccc(CS(=O)(=O)O)cc1)NC(=O)[C@H](CC(=O)O)NC(=O)COCCOCCNC(=O)COCCOCCNC(=O)CC[C@H](NC(=O)CCCCCCCCCCCCCCC(=O)O)C(=O)O)C(=O)N(C)[C@H](CC(=O)O)C(=O)N(C)[C@@H](Cc1ccccc1)C(N)=O ({C16 diacid-γGlu-AEEA-AEEA}-D[Phe(4-CH2SO3H)]LGW[Nle][dNMeD][NMeF]-NH2) |  |  |  |  |  | 0.191 |  |  |
| CCCC[C@H](NC(=O)Cc1ccc(O)cc1)C(=O)NCC(=O)N[C@@H](Cc1c[nH]c2ccccc12)C(=O)N[C@@H](CCCC)C(=O)N(C)[C@H](CC(=O)O)C(=O)N[C@@H](Cc1ccccc1)C(N)=O (X1-[Nle]GW[Nle][dNMeD]F-NH2) |  |  |  |  | > 1000 | 1.55 | 7.08 | > 10000 |
| CCCC[C@H](NC(=O)[C@H](Cc1c[nH]c2ccccc12)NC(=O)CNC(=O)[C@H](CC(C)C)NC(=O)[C@H](Cc1ccc(OS(=O)(=O)O)cc1)NC(=O)[C@H](CC(=O)O)NC(=O)COCCOCCNC(=O)COCCOCCNC(=O)CC[C@H](NC(=O)CCCCCCCCCCCCCCCCC(=O)O)C(=O)O)C(=O)N(C)[C@@H](CC(=O)O)C(=O)N(C)[C@@H](Cc1cccc2ccccc12)C(N)=O ({C18 diacid-γGlu-AEEA-AEEA}-D[sY]LGW[Nle][NMeD][NMe1Nal]-NH2) |  |  |  |  | 16.6 | 0.501 | 0.115 | 603 |
| CCCC[C@H](NC(=O)Cc1ccc(O)cc1)C(=O)NCC(=O)N[C@@H](Cc1c[nH]c2ccccc12)C(=O)N[C@@H](CCCC)C(=O)N(C)[C@@H](CC(=O)O)C(=O)N(C)[C@@H](Cc1ccccc1)C(N)=O (X1-[Nle]GW[Nle][NMeD][NMeF]-NH2) |  |  |  |  | > 1000 | 8.51 | 42.7 | > 10000 |
| CCCC[C@H](NC(=O)[C@H](Cc1c[nH]c2ccccc12)NC(=O)CNC(=O)[C@H](CC(C)C)NC(=O)[C@H](Cc1ccc(OS(=O)(=O)O)cc1)NC(=O)[C@H](CC(=O)O)NC(=O)COCCOCCNC(=O)COCCOCCNC(=O)CC[C@H](NC(=O)CCCCCCCCCCCCCCCCC(=O)O)C(=O)O)C(=O)N[C@@H](CC(=O)O)C(=O)N[C@@H](Cc1ccccc1)C(N)=O |  |  |  |  | 0.501 | 0.129 | 0.275 | 0.166 |
| CCCC[C@H](NC(=O)[C@H](Cc1c[nH]c2ccccc12)NC(=O)CNC(=O)[C@H](CC(C)C)NC(=O)[C@H](Cc1ccc(OS(=O)(=O)O)cc1)NC(=O)[C@H](CC(=O)O)NC(=O)COCCOCCNC(=O)COCCOCCNC(=O)CC[C@H](NC(=O)CCCCCCCCCCCCCCCCC(=O)O)C(=O)O)C(=O)N(C)[C@@H](CC(=O)O)C(=O)N[C@@H](Cc1ccccc1)C(N)=O |  |  |  |  | 1.55 |  |  | 245 |
| CC(C)C[C@H](NC(=O)[C@H](Cc1ccc(OS(=O)(=O)O)cc1)NC(=O)[C@H](CC(=O)O)NC(=O)COCCOCCNC(=O)COCCOCCNC(=O)CC[C@H](NC(=O)CCCCCCCCCCCCCCCCC(=O)O)C(=O)O)C(=O)NCC(=O)N[C@@H](Cc1c[nH]c2ccccc12)C(=O)N[C@@H](C)C(=O)N(C)[C@H](CC(=O)O)C(=O)N(C)[C@@H](Cc1ccccc1)C(N)=O ({C18 diacid-γGlu-AEEA-AEEA}-D[sY]LGWA[dNMeD][NMeF]-NH2) |  |  |  |  |  | 0.166 | 0.617 |  |
| CSCC[C@H](NC(=O)[C@H](Cc1c[nH]c2ccccc12)NC(=O)CNC(=O)[C@H](Cc1ccc(O)cc1)NC(=O)[C@H](C)NC(=O)[C@H](CCC(=O)O)NC(=O)[C@H](CCC(=O)O)NC(=O)[C@H](CCC(=O)O)NC(=O)[C@H](CCC(=O)O)NC(=O)[C@H](CCC(=O)O)NC(=O)[C@H](CC(C)C)NC(=O)[C@H](Cc1c[nH]c2ccccc12)NC(=O)[C@@H]1CCCN1C(=O)CNC(=O)[C@@H]1CCC(=O)N1)C(=O)N[C@@H](CC(=O)O)C(=O)N[C@@H](Cc1ccccc1)C(N)=O |  |  |  |  |  | 269 | 851 |  |
| CCCC[C@H](NC(=O)[C@H](Cc1c[nH]c2ccccc12)NC(=O)CNC(=O)[C@H](CC(C)C)NC(=O)[C@H](Cc1ccc(OS(=O)(=O)O)cc1)NC(=O)[C@H](CC(=O)O)NC(=O)COCCOCCNC(=O)COCCOCCNC(=O)CC[C@H](NC(=O)CCCCCCCCCCCCCCCCC(=O)O)C(=O)O)C(=O)N(C)[C@H](CC(=O)O)C(=O)N[C@@H](Cc1ccccc1)C(N)=O |  |  |  |  | 132 |  |  | 5620 |

Reference: ChEMBL document CHEMBL4368907 (J Med Chem, 2019)
